This is an account of results in paper PMC7245249 (Biomedical Journal, 2020).

In series [1] the test system is Feline infectious peritonitis virus. The class given is cell-based. The settings on record: for EC50: read-out: EC50 (Visual assay), Feline infectious peritonitis virus; for Selectivity index, Feline infectious peritonitis virus: CC50/EC50 in Fcwf-4 cells.
Series [2] concerns Human coronavirus OC43. In words: microbe, parasite or virus in culture. The class given is cell-based, Human coronavirus OC43 (HCoV-OC43). As to conditions: for EC50: read-out: EC50 (IFA), Human coronavirus OC43; for Selectivity index, Human coronavirus OC43: CC50/EC50 in HCT-8 cells.
Series [3] can be described thus: in vitro. The settings on record: human.
A short description of series [4]: in vitro. The settings on record: cat (Felis catus).
Setting [5] is: Betacoronavirus 1, OC43, HCT-8, 72 h.

Each structure is given as a SMILES string. Structures can show the parent of a compound that is named as a salt. Where two headings read alike, the source gives them in different places. Bounds are passed on as bounds.

Regarding `COc1ccc(C[C@H]2NC[C@H](O)[C@H]2OC(C)=O)cc1` [Anisomycin], the concentration giving a half-maximal response (EC50) turned out to be 0.023 µM in series [1] and 0.2 ± 0.03 µM in series [2].

For `CCCCCC[C@H]1C(=O)O[C@H](C)[C@H](NC(=O)c2cccc(NC=O)c2O)C(=O)O[C@@H](C)[C@@H]1OC(=O)CC(C)C` [Antimycin A], the “Selectivity index, Feline infectious peritonitis virus” value in series [1] is 1.10. Besides, the values for the CC50 in series [3] and in series [4] were greater than 50 µM and 81.9 ± 6.36 µM, respectively. Besides, the concentration for a half-maximal effect (EC50) in series [2] (setting [5]) amounted to 0.062 ± 0.003 µM. Besides, in series [2], the “Selectivity index, Human coronavirus OC43” value is on record as greater than 806.

On to `O=C1C(O)=C([C@H]2CC[C@H](c3ccc(Cl)cc3)CC2)C(=O)c2ccccc21` [Atovaquone], for which the CC50 in series [3] is greater than 50 µM; in series [4], greater than 100 µM. Also, in series [2] (setting [5]), the concentration for a half-maximal effect (EC50) was 6.78 ± 0.73 µM. Moreover, the “Selectivity index, Human coronavirus OC43” value in series [2] is given as greater than 7.37.

Consider `CCN(CC)CCCC(C)Nc1ccnc2cc(Cl)ccc12` (stereo not drawn) [Chloroquine (diphosphate), Chloroquine], for which the “Selectivity index, Feline infectious peritonitis virus” value in series [1] turned out to be 1.35. Moreover, the concentration for a half-maximal effect (EC50) in series [1] was found to be 27.9 ± 0.72 µM; in series [2] (setting [5]), 27.4 ± 2.51 µM. Moreover, the CC50 in series [3] was greater than 50 µM; in series [4] it was 37.5 µM. In addition, the “Selectivity index, Human coronavirus OC43” value in series [2] is greater than 1.82.

Regarding `Cc1nc2c([nH]1)-c1ccccc1N(C(=O)c1ccc(NC(=O)c3ccccc3-c3ccccc3)cc1)CC2` [Conivaptan], the figures for the 50% effective concentration (EC50) in series [1] and in series [2] (setting [5]) were 16.9 ± 1.51 µM and 12.2 ± 4.2 µM, respectively. The CC50 in series [3] was greater than 50 µM; in series [4], greater than 100 µM. The “Selectivity index, Human coronavirus OC43” value in series [2] is recorded as greater than 4.10.

As to `CC[C@H]1CN2CCc3cc(OC)c(OC)cc3[C@@H]2C[C@@H]1C[C@H]1NCCc2cc(OC)c(OC)cc21` [Emetine], in series [1], the “Selectivity index, Feline infectious peritonitis virus” value stood at 3.00. The CC50 is greater than 50 µM in series [3] and 0.03 µM in series [4]. Moreover, the half-maximal effective concentration (EC50) in series [2] (setting [5]) worked out at 0.21 ± 0.07 µM. For the same compound, in series [2], the “Selectivity index, Human coronavirus OC43” value was greater than 238.

Consider `N#C[C@@]1(c2ccc3c(N)ncnn23)O[C@H](CO)[C@@H](O)[C@H]1O` [GS-441524], for which the figures for the CC50 in series [3] and in series [4] were greater than 50 µM and greater than 100 µM, respectively. Also, the EC50 in series [2] (setting [5]) worked out at 6.77 ± 0.71 µM. For the same compound, in series [2], the “Selectivity index, Human coronavirus OC43” value is on record as greater than 7.39.

Take `Nc1ccn([C@@H]2O[C@H](CO)[C@@H](O)C2(F)F)c(=O)n1` [Gemcitabine (Hydrochloride), Gemcitabine]: the CC50 in series [3] was greater than 50 µM; in series [4], greater than 100 µM. In addition, in series [2] (setting [5]), the EC50 amounted to 38.6 ± 11.4 µM. Also, the “Selectivity index, Human coronavirus OC43” value in series [2] is given as greater than 1.30.

With `COC(=O)C[C@](O)(CCCC(C)(C)O)C(=O)O[C@@H]1C(OC)=C[C@]23CCCN2CCc2cc4c(cc2[C@H]13)OCO4` [Homoharringtonine], the “Selectivity index, Feline infectious peritonitis virus” value in series [1] was 1.58. Moreover, the CC50 in series [3] came to 7.61 ± 0.6 µM; in series [4], 0.049 ± 0.002 µM. Besides, the EC50 in series [2] (setting [5]) stood at 0.29 ± 0.03 µM. Further, the “Selectivity index, Human coronavirus OC43” value in series [2] was determined as 26.7.

With `O=C(Nc1ccc([N+](=O)[O-])cc1Cl)c1cc(Cl)ccc1O` [Niclosamide], in series [1], the “Selectivity index, Feline infectious peritonitis virus” value is 0.80. Further, the values for the CC50 in series [3] and in series [4] were greater than 50 µM and 0.23 µM, respectively. In addition, the EC50 in series [2] (setting [5]) came out at 1.36 ± 0.56 µM. Also, the “Selectivity index, Human coronavirus OC43” value in series [2] is given as greater than 36.8.

Consider `CC(=O)Oc1ccccc1C(=O)Nc1ncc([N+](=O)[O-])s1` [Nitazoxanide], for which the results for the CC50 in series [3] and in series [4] were greater than 50 µM and 4.69 µM, respectively. Further, the EC50 in series [2] (setting [5]) was 28.6 ± 7.44 µM. The “Selectivity index, Human coronavirus OC43” value in series [2] is on record as greater than 1.75.

Consider `CC[C@H]1/C=C/C=C/C[C@@H](C)[C@H](O)[C@@](C)(O)C(=O)[C@@H](C)[C@H](O)[C@@H](C)C(=O)[C@@H](C)[C@H](O)[C@@H](C)/C=C/C(=O)O[C@@H]2[C@H](C)[C@H](CC1)O[C@]1(CC[C@H](C)[C@H](C[C@@H](C)O)O1)[C@H]2C` [Oligomycin], for which the “Selectivity index, Feline infectious peritonitis virus” value in series [1] worked out at 1.06. In addition, the CC50 was greater than 50 µM in series [3] and 18.8 µM in series [4]. The concentration for a half-maximal effect (EC50) in series [2] (setting [5]) was 5.2 µM; in series [2], 5.22 ± 0.96 µM. Besides, the “Selectivity index, Human coronavirus OC43” value in series [2] is greater than 9.58.

As to `CC[C@@H](C(=O)[C@@H](C)[C@@H](O)[C@H](C)[C@@H]1O[C@@H]([C@@H](CC)C(=O)O)CC[C@@H]1C)[C@H]1O[C@]2(C=C[C@@H](O)[C@]3(CC[C@@](C)([C@H]4CC[C@](O)(CC)[C@H](C)O4)O3)O2)[C@H](C)C[C@@H]1C` [Salinomycin], the “Selectivity index, Feline infectious peritonitis virus” value in series [1] is on record as 0.49. In addition, the CC50 in series [3] was greater than 50 µM; in series [4], 0.34 ± 0.1 µM. Further, the concentration giving a half-maximal response (EC50) in series [2] (setting [5]) turned out to be 5.78 ± 2.17 µM. For the same compound, the “Selectivity index, Human coronavirus OC43” value in series [2] was greater than 8.65.

On to `CCN(CC)CCOc1ccc2c(c1)C(=O)c1cc(OCCN(CC)CC)ccc1-2` [Tilorone (dihydrochloride), Tilorone], for which the “Selectivity index, Feline infectious peritonitis virus” value in series [1] was 0.84. The results for the CC50 in series [3] and in series [4] were 35.9 ± 2.97 µM and 9.38 µM, respectively. Besides, in series [2] (setting [5]), the EC50 was 26 ± 2.24 µM. In series [2], the “Selectivity index, Human coronavirus OC43” value was 1.38.

Regarding `CC(C)[C@@H]1NC(=O)[C@H](C)OC(=O)[C@@H](C(C)C)NC(=O)[C@@H](C(C)C)OC(=O)[C@H](C(C)C)NC(=O)[C@H](C)OC(=O)[C@@H](C(C)C)NC(=O)[C@@H](C(C)C)OC(=O)[C@H](C(C)C)NC(=O)[C@H](C)OC(=O)[C@@H](C(C)C)NC(=O)[C@@H](C(C)C)OC1=O` [Valinomycin], the “Selectivity index, Feline infectious peritonitis virus” value in series [1] was 2.45. Also, the CC50 is greater than 50 µM in series [3] and 3.98 ± 0.39 µM in series [4]. Besides, the EC50 in series [2] (setting [5]) stood at 0.4 µM; in series [2], 0.41 ± 0.02 µM. Moreover, the “Selectivity index, Human coronavirus OC43” value in series [2] was greater than 122.

For `CS(=O)(=O)c1ccc(C(=O)Nc2ccc(Cl)c(-c3ccccn3)c2)c(Cl)c1` [Vismodegib], the CC50 was greater than 50 µM in series [3] and greater than 100 µM in series [4]. The 50% effective concentration (EC50) in series [2] (setting [5]) was determined as 47.6 ± 3.29 µM. Moreover, the “Selectivity index, Human coronavirus OC43” value in series [2] is recorded as greater than 1.05.
